The values that follow are results of earlier work, collected in patent US20130122119A1, “PHYLLANTHUS AMARUS COMPOSITIONS AND METHOD OF EXTRACTING SAME” (NATREON, INC., priority 2011, published 2013).

For one data set, the system named is TNF-α release. The settings on record: read-out: IC50 of TNF-α release inhibition.
For the next data set, the system named is mouse skin tumors. Particulars: week 20, treatment prior to okadaic acid.
The test system of data set [1] is hepatitis B surface antigen (HBsAg) secretion. Particulars: non-cytotoxic concentration of 200 μg/ml.
Data set [2] deals with hepatitis B e-antigen (HBeAg) secretion. The settings on record: non-cytotoxic concentration of 200 μg/ml.
For data set [3] the following is noted: geraniin isolated from Phyllanthus sellowianus.

In general, IC50 refers to the concentration at which inhibition is half-maximal. As to `O=C(O[C@@H]1O[C@@H]2COC(=O)c3cc(O)c(O)c(O)c3-c3c(cc(O)c(O)c3O)C(=O)O[C@H]([C@H]1O)[C@@H]2O)c1cc(O)c(O)c(O)c1` [Corilagin, beta-1-O-galloyl-3,6-(R)-hexahydroxydiphenoyl-D-glucose], the concentration for half-maximal inhibition (IC50) in the data set with TNF-α release is 76 µM.

For the compound `O=C1OC2C3COC(=O)c4cc(O)c(O)c(O)c4-c4c(cc(O)c(O)c4O)C(=O)OC2C(OC(=O)c2cc(O)c(O)c4c2C2C1=CC(=O)C(O)(O4)C2(O)O)C(OC(=O)c1cc(O)c(O)c(O)c1)O3` [Geraniin, beta-D-Glucopyranose, cyclic 2-7:4-5-(3,6-dihydro-2,9,10,11,11-pentahydroxy-3-oxo-2,6-methano-2H-1-benzoxocin-5,7-dicarboxylate) cyclic 3,6-(4,4′,5,5′,6,6′-hexahydroxy(1,1′-biphenyl)-2,2′-dicarboxylate) 1-(3,4,5-trihydroxybenzoate)], the IC50 in the data set on TNF-α release was 43 µM. The “average numbers of tumor per mouse” value in the data set on mouse skin tumors (3.8 without treatment) was 1.1. Besides, in the data set on mouse skin tumors (80.0% without treatment), the “percentage of tumor-bearing mice” value is on record as 40.0%. In addition, in data set [1], the “inhibition of HBsAg secretion” value is “more than 85.8%”. The “inhibition of HBeAg secretion” value in data set [2] was > 63.7%. For the same compound, the “analgesic potency at the ID50 level (micromol/kg) relative to aspirin and acetaminophen” value in data set [3] is on record as “about six- to seven-fold more potent”.

In the case of (−)-epigallocatechin gallate, in the data set on TNF-α release, the IC50 is 26 µM.
